Test system: volunteers who tested negative or HIV antibodies
Assay: Overall neuropsychologic and clinical observations during seven-day peptide administration
Type: in vivo, human
Procedure: As indicated in the Table, symptoms of substance abuse, childhood dyslexia and depression were ameliorated. The peptide having the formula: [formula] was given at dosage of 0.033 mg/kg/da to 0.133 mg/kg/da for seven days. As indicated in the Table, the unexpected effects observed in these volunteers who tested negative or HIV antibodies were the following: • 1. […] This effect maintained for one month of follow-up.

C[C@@H](N)C(=O)N[C@@H](CO)C(=O)N[C@H](C(=O)N[C@H](C(=O)N[C@H](C(=O)N[C@@H](CC(N)=O)C(=O)N[C@@H](Cc1ccc(O)cc1)C(=O)N[C@H](C(N)=O)[C@@H](C)O)[C@@H](C)O)[C@@H](C)O)[C@@H](C)O [Peptide T]
scores on memory and attention components of standard neuropsychologic tests (0.033 mg/kg/da to 0.133 mg/kg/da for seven days, remitted after Peptide T was discontinued): Incremental scores | physical activity (all subjects, while on drug, did not continue after drug discontinuance): increases in physical activity | fatigue, energy and vigor (reported by subjects) (all subjects, effect abated off drug): decreased fatigue and increased energy and vigor | mood scores on depression scales (two research volunteers with prior histories of depression, effect maintained for one month of follow-up): Improved mood scores

From EP0415999B1, “COMPOSITIONS HAVING USE AS TREATMENT OF PSORIASIS AND NEUROP[…]” (THE UNITED STATES OF AMERICA as represented by the …, priority 1988, dated 1998)
